Results published in ChEMBL document CHEMBL5291721, “A preclinical secondary pharmacology resource illuminates target-adverse drug reaction associations of marketed drugs” (Nat Commun, 2023).

Legend:
[1] = target: Prostaglandin G/H synthase 1 (Homo sapiens, UniProt P23219); type: functional
Adenosine receptor A3 = target: T1, Adenosine receptor A3 (Homo sapiens, UniProt P0DMS8)
T1 sequence (P0DMS8 whole entry): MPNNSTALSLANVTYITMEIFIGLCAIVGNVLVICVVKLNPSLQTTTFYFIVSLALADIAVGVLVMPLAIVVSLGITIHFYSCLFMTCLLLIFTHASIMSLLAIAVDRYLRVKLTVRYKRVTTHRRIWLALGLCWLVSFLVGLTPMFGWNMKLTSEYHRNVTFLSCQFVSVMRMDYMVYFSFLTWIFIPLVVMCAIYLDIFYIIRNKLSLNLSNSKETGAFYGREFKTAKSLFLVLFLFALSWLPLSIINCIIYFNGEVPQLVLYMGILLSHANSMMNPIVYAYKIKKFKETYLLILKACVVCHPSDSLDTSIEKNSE

[2] = target: T2, Muscarinic acetylcholine receptor M2 (Homo sapiens, UniProt P08172)
T2 sequence (P08172 whole entry): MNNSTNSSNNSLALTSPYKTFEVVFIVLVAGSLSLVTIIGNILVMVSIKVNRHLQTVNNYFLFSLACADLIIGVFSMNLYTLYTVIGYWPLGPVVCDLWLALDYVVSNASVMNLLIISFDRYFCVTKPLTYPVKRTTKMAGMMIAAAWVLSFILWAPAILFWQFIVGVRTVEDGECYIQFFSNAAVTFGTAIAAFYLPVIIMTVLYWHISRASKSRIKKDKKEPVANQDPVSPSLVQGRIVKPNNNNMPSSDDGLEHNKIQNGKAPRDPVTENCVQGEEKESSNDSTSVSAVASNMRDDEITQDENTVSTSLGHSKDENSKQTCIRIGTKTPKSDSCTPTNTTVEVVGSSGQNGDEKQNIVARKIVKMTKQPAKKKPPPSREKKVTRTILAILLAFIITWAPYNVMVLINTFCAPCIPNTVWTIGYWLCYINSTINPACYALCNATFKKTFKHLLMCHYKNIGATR

Thromboxane A2 receptor = target: T3, Thromboxane A2 receptor (Homo sapiens, UniProt P21731); type: functional, cell-based
T3 sequence (P21731 whole entry): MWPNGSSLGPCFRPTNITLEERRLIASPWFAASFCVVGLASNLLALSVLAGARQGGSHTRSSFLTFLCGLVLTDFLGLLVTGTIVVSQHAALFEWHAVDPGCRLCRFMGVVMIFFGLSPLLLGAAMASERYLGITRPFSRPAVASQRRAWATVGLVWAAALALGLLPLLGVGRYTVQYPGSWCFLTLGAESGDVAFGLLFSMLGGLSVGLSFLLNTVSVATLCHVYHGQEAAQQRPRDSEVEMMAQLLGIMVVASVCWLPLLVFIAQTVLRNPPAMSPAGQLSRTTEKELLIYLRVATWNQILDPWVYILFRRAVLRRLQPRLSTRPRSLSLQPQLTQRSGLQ

[3] = target: T4, Alpha-2A adrenergic receptor (Homo sapiens, UniProt P08913)
T4 sequence (P08913 whole entry): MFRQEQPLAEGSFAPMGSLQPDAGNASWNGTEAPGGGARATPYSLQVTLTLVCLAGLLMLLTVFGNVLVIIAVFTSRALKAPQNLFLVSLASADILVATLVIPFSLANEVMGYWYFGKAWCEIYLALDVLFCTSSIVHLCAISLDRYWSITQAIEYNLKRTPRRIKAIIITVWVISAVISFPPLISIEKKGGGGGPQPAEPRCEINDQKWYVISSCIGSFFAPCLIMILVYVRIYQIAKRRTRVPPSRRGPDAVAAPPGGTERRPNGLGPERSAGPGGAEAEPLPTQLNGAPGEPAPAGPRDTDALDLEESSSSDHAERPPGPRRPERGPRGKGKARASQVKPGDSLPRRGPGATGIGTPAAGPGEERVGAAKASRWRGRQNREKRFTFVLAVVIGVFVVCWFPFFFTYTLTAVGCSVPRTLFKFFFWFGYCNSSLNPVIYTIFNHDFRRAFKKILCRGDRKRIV

Glucocorticoid receptor = target: T5, Glucocorticoid receptor (Homo sapiens, UniProt P04150)
T5 sequence (P04150 whole entry): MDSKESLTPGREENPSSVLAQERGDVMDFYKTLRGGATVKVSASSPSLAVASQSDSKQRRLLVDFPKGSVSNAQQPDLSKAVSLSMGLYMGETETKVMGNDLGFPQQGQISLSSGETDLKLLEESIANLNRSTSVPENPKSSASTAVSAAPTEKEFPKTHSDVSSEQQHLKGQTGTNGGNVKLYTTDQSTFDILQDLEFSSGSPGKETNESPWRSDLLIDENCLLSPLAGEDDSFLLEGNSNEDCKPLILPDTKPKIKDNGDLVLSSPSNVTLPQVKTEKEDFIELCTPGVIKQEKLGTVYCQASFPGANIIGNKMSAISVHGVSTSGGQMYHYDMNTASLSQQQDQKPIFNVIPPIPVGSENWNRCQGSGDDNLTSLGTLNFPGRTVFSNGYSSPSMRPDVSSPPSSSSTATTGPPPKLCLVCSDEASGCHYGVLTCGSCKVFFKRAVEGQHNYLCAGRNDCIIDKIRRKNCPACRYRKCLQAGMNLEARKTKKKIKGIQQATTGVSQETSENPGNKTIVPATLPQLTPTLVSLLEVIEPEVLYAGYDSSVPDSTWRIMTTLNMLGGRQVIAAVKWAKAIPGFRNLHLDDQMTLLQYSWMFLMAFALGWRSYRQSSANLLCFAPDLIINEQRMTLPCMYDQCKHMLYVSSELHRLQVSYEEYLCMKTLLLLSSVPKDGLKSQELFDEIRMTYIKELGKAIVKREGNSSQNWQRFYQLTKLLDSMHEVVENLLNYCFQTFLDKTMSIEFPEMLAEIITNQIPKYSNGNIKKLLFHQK

[4] = target: Sodium-dependent dopamine transporter (Homo sapiens, UniProt Q01959)
[5] = target: T6, Alpha-1A adrenergic receptor (Homo sapiens, UniProt P35348); type: functional, cell-based
T6 sequence (P35348 whole entry): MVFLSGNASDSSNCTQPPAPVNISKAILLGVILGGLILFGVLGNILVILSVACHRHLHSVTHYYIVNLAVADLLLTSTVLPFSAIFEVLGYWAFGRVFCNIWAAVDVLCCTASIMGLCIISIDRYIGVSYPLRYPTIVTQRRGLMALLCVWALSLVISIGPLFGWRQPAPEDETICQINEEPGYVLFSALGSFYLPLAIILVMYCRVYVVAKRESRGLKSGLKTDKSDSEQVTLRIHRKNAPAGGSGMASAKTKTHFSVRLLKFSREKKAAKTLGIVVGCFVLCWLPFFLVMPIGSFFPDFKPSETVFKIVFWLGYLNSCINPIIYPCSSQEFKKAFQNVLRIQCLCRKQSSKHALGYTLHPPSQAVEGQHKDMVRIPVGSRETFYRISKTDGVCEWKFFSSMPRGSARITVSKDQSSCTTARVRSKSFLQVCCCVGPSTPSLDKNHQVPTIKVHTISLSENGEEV
Further: assay procedure not described here.

Chain of Sodium-dependent dopamine transporter (Q01959 whole entry): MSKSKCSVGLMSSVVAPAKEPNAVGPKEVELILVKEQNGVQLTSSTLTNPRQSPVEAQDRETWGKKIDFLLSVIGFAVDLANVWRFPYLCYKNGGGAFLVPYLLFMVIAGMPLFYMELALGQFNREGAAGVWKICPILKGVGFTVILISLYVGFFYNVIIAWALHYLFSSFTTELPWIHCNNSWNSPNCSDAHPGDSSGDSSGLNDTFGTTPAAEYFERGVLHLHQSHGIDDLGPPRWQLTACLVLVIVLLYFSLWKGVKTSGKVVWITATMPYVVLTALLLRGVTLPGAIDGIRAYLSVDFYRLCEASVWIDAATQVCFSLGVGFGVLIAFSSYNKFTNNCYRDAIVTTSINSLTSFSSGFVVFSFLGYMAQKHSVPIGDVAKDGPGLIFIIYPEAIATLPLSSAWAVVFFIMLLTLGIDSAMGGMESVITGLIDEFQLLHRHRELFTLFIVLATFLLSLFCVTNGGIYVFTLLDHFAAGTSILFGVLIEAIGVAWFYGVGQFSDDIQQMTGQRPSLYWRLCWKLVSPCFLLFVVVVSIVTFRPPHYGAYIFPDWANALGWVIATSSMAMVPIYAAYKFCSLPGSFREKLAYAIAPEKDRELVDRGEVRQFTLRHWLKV
Chain of Prostaglandin G/H synthase 1 (P23219 whole entry): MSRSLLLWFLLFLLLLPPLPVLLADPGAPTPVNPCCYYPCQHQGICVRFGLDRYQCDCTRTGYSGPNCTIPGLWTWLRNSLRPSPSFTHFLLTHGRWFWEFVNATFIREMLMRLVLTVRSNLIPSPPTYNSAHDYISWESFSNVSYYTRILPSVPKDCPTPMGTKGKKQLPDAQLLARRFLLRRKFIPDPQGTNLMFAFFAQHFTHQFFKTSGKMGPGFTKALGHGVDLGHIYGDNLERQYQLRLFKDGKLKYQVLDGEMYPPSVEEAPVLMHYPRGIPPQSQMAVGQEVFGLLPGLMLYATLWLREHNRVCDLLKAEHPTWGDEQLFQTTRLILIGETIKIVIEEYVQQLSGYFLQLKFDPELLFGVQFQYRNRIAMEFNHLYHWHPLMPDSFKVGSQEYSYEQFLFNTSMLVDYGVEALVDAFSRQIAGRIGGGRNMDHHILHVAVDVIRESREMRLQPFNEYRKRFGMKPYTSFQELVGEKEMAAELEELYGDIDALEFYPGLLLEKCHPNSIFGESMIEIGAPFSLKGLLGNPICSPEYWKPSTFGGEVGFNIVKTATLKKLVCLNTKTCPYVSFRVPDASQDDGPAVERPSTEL

Row | SMILES | AC50 [1] [µM] | AC50 (Adenosine receptor A3) [µM] | AC50 [2] [µM] | AC50 (Thromboxane A2 receptor) [µM] | AC50 [3] [µM] | AC50 (Glucocorticoid receptor) [µM] | AC50 [4] [µM] | AC50 [5] [µM]
1 | OC[C@H]1NC[C@H](O)[C@@H](O)[C@H]1O | > 30 | > 30 | > 30 | > 30 | > 30 |  |  | 
2 | C=CCOc1ccc(CC(=O)O)cc1Cl [ALCLOFENAC] | > 30 | > 30 | > 30 | > 30 | > 30 |  |  | 
3 | NCCCNCCSP(=O)(O)O [AMIFOSTINE] |  |  |  |  |  | > 30 | > 30 | > 30
4 | C[C@H](CS)C(=O)N1CCC[C@H]1C(=O)O [CAPTOPRIL] |  |  |  |  |  | > 30 | > 30 | > 30
5 | CN(C)CCOC(c1ccc(Cl)cc1)c1ccccn1 (centres undefined) [CARBINOXAMINE] |  |  |  |  |  | > 30 | 5.2 | > 30
6 | CCN(CC)CCn1c(=O)c(Cc2ccc(OC)cc2)nc2ccccc21 [CAROVERINE] |  |  |  |  |  | > 30 | > 30 | > 30
7 | NC(=O)C1(N2CCCCC2)CCN(CCCN2c3ccccc3CCc3ccccc32)CC1 [CARPIPRAMINE] | > 30 | > 30 | 4.39 |  | 0.208 |  |  | 
8 | CN1CCN(C(c2ccccc2)c2ccc(Cl)cc2)CC1 (centres undefined) [CHLORCYCLIZINE] | > 30 | > 30 | 0.505 |  | 3.1 |  |  | 
9 | CC(C)/N=c1\cc2n(-c3ccc(Cl)cc3)c3ccccc3nc-2cc1Nc1ccc(Cl)cc1 [CLOFAZIMINE] |  |  |  |  |  | 0.034 | > 30 | > 30
10 | O=P1(N(CCCl)CCCl)NCCCO1 (centres undefined) [CYCLOPHOSPHAMIDE ANHYDROUS] | > 30 | > 30 | > 30 | > 30 | > 30 |  |  | 
11 | CC(C)Nc1cccnc1N1CCN(C(=O)c2cc3cc(NS(C)(=O)=O)ccc3[nH]2)CC1 [DELAVIRDINE] | > 30 | 21.4 | > 30 | 23.2 | 13.4 |  |  | 
12 | C[C@@H](CN1CC(=O)NC(=O)C1)N1CC(=O)NC(=O)C1 [DEXRAZOXANE] | 2.16 | > 30 | > 30 | > 30 | > 30 |  |  | 
13 | COC(=O)CCc1ccc(OCC(O)CNC(C)C)cc1 (centres undefined) [ESMOLOL] |  |  |  |  |  | > 30 | > 30 | > 30
14 | C[C@]12CC[C@@H]3c4ccc(OC(=O)N(CCCl)CCCl)cc4CC[C@H]3[C@@H]1CC[C@@H]2OP(=O)(O)O [ESTRAMUSTINE PHOSPHATE] | > 30 | 7.84 | > 30 | > 30 | > 30 |  |  | 
15 | O=c1[nH]c2ccccc2n1CCN1CCN(c2cccc(C(F)(F)F)c2)CC1 [FLIBANSERIN] | > 30 | 15.6 | > 30 | 10.5 | 10.3 |  |  | 
16 | O=c1[nH]cc(F)c(=O)[nH]1 [FLUOROURACIL] | > 30 |  | > 30 | > 30 | > 30 | > 30 | > 30 | 
17 | O=C(O)[C@H](O)[C@@H](O)[C@H](O)[C@H](O)CO [GLUCONIC ACID] | > 30 | > 30 | > 30 | > 30 | > 30 |  |  | 
18 | N=C(N)NCC1COc2ccccc2O1 (centres undefined) [GUANOXAN] | > 30 | > 30 | > 30 | 19.9 | 0.15 |  |  | 
19 | N#Cc1ccnc(N2C(=O)CC[C@H]2C(=O)N(c2cncc(F)c2)[C@H](C(=O)NC2CC(F)(F)C2)c2ccccc2Cl)c1 [IVOSIDENIB] | > 30 | > 30 | > 30 | > 30 | > 30 |  |  | 
20 | CNC1(c2ccccc2Cl)CCCCC1=O (centres undefined) [KETAMINE] | > 30 | > 30 | > 30 | > 30 | > 30 |  |  | 
21 | N[C@@H](Cc1cc(I)c(Oc2cc(I)c(O)c(I)c2)c(I)c1)C(=O)O [LEVOTHYROXINE] |  |  |  |  |  | > 30 | > 30 | > 30
22 | CC(=O)NC[C@H]1CN(c2ccc(N3CCOCC3)c(F)c2)C(=O)O1 [LINEZOLID] |  |  |  |  |  | > 30 |  | > 30
23 | O=NN(CCCl)C(=O)NC1CCCCC1 [LOMUSTINE] | > 30 | > 30 | > 30 | > 30 | 3.5 |  |  | 
24 | O=C1[C@@H]2[C@H]3CC[C@H](C3)[C@@H]2C(=O)N1C[C@@H]1CCCC[C@H]1CN1CCN(c2nsc3ccccc23)CC1 [LURASIDONE] | > 30 | 6.36 |  | > 30 |  |  |  | 
25 | CCCCCCO[C@@H](C)c1cccc(-c2csc(NC(=O)c3cc(Cl)c(/C=C(\C)C(=O)O)c(Cl)c3)n2)c1OC [LUSUTROMBOPAG] | 2.15 | 0.334 | > 30 | 14.2 | > 30 |  |  | 
26 | Cc1cc(C)cc(OCC2CNC(=O)O2)c1 (centres undefined) [METAXALONE] | > 30 | > 30 | > 30 | > 30 | > 30 |  |  | 
27 | C[C@H](Cn1cnc2c(N)ncnc21)OCP(=O)(O)O [TENOFOVIR ANHYDROUS] |  |  |  |  |  | > 30 | > 30 | > 30
28 | Cc1c(C)c2c(c(C)c1O)CCC(C)(COc1ccc(CC3SC(=O)NC3=O)cc1)O2 (centres undefined) [TROGLITAZONE] | 5.93 | 3.29 | 17.8 |  | 10.3 |  | 23.7 | > 30
